{"source": "patent US20070009965A1", "about": "“Novel method for screening for GPCR agonists and/or antagonists from herbs” (Advanced Gene Technology, Corp., priority 2004, published 2007)", "target": "MC5R (Homo sapiens, UniProt P33032)", "sequence (P33032 whole entry, species assumed)": "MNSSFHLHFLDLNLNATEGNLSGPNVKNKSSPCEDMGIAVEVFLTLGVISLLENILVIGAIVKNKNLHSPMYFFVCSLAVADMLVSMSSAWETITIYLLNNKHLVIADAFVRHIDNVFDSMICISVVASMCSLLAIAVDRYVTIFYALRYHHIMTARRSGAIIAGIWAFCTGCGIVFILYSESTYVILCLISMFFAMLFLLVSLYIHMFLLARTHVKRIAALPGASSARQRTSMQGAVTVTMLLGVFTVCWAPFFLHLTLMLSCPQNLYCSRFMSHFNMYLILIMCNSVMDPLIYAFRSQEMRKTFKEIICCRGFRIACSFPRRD", "assay": "herbal chip hybridization with MC5R and Cy3-anti-MC5R, fluorescence imaging", "format": "binding", "conditions": "at least 25 ng/ml NDP-MSH spotted on coated slide; at least 25 μg/ml MC5R; at least 5 μg/ml Cy3-anti-MC5R; laser scanner", "procedure": "A coated plastic slide (1) having active epoxy groups on its surface was prepared in accordance with the method disclosed in the Paragraph entitled “Pretreatment of the Plastic Slide and Preparation of the Coated Plastic Slide” under the Example section of U.S. Pat. No. 6,645,719 B2.\nIn a dark room, under room temperature, at least 25 μg/ml of MC3R, MC4R and MC5R were individually added to the slides (2), and the resultant slides (3) were allowed to stand for 1 hour for completing hybridization. The slides (3) were washed with 1× TBST buffer (50 mM Tris, pH 7.3, 0.15 M NaCl and 0.02% Tween 20) and Milli-Q water, and then dried in an incubator at 37° C.\nAlso in the dark room, under room temperature, at least 5 μg/ml of Cy3-anti-MC3R, Cy3-anti-MC4R and Cy3-anti-MC5R were respectively added to the slides (3), each containing said bound MC3R, MC4R or MC5R. The resultant slides (4) were allowed to stand for 1 hour for completing the specific MCXR-anti-MCXR binding, and were then washed with 1× TBST buffer (50 mM Tris, pH 7.3, 0.15 M NaCl and 0.02% Tween 20) and Milli-Q water, and dried in an incubator at 37° C.", "data": [{"substance": "NH2-Ser-Thr-Ser-Nle-Glu-His-D-Phe-Arg-Trp-Gly-Lys-Pro-Val-OH [NDP-MSH]", "values": [{"measurement": "Mean of Fluorescence Intensity (M)", "value": 722.50}]}]}
